Assays:
[1] = biological target: T1, Serine/threonine-protein kinase D2 (Homo sapiens, UniProt Q9BZL6)
T1 sequence (Q9BZL6 whole entry): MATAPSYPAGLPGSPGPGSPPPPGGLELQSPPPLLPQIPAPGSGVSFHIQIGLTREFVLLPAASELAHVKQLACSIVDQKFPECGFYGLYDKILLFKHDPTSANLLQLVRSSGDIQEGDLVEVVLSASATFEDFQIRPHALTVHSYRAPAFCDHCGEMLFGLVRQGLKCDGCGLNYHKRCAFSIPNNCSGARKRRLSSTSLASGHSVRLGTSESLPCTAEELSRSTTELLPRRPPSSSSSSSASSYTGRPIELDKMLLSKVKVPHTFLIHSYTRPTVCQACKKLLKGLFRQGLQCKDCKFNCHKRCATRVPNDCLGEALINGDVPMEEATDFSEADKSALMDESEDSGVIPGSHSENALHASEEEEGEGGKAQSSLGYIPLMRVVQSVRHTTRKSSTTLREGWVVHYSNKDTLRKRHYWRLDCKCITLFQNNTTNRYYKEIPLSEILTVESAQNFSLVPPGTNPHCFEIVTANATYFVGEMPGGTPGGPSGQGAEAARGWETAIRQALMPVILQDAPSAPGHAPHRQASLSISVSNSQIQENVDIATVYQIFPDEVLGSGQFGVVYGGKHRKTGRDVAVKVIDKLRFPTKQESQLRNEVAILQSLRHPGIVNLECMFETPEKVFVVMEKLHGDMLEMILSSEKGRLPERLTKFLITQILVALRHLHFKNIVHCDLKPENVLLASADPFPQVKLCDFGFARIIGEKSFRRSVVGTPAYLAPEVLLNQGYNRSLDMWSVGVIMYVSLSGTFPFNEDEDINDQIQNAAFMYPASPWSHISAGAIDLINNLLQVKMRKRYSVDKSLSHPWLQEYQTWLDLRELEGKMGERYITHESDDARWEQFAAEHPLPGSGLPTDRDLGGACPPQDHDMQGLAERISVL

[2] = biological target: Ribosomal protein S6 kinase alpha-2 (Homo sapiens, UniProt Q15349)
Sequence of Ribosomal protein S6 kinase alpha-2 (Q15349 whole entry): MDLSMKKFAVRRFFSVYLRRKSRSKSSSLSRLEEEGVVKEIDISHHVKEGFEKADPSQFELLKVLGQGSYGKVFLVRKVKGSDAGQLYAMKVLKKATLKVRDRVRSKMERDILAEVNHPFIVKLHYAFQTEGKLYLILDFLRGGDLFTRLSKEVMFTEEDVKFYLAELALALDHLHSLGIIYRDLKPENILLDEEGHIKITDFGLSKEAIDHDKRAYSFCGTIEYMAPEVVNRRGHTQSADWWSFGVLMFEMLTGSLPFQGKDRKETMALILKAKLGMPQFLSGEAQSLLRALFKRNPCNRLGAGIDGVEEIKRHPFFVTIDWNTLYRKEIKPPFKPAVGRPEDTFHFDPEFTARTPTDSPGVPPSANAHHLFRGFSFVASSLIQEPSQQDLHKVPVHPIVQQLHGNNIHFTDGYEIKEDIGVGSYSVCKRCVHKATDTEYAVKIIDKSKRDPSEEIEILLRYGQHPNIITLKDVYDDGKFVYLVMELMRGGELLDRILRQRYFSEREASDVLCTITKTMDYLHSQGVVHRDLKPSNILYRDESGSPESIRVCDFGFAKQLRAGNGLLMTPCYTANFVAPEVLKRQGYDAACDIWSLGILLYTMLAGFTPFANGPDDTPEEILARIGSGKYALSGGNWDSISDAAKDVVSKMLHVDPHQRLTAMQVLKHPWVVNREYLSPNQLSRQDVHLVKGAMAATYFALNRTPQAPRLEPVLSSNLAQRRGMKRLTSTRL

SMILES	IC50 [1]	IC50 [2]
CC[C@@H](N)c1nc(N(C)C(C)C)cc2c1CN(c1cccc(-c3nnc4n3[C@@H](C)CC4)n1)C2=O	251 nM	53.5 nM
COC[C@@H](N)c1nc(C2(C)CC2)cc2c1CN(c1cccc(-c3nnc4n3[C@@H](C)CC4)n1)C2=O	942 nM	48.6 nM

— ChEMBL document CHEMBL5729768, “Azalactam compounds as HPK1 inhibitors” (2023)
